In PubChem BioAssay AID1671257:

Biological target: Tyrosine-protein kinase ABL2 (Homo sapiens) (UniProt P42684)
Experiment: ABL2 kinase inhibition, dose response, biochemical, Z'-LYTE, FRET readout, direct format (AID 1671257)
Details: Z'-LYTE FRET kinase assay, recombinant ABL2

Chain of Tyrosine-protein kinase ABL2 (Homo sapiens) (P42684 whole entry, looked up): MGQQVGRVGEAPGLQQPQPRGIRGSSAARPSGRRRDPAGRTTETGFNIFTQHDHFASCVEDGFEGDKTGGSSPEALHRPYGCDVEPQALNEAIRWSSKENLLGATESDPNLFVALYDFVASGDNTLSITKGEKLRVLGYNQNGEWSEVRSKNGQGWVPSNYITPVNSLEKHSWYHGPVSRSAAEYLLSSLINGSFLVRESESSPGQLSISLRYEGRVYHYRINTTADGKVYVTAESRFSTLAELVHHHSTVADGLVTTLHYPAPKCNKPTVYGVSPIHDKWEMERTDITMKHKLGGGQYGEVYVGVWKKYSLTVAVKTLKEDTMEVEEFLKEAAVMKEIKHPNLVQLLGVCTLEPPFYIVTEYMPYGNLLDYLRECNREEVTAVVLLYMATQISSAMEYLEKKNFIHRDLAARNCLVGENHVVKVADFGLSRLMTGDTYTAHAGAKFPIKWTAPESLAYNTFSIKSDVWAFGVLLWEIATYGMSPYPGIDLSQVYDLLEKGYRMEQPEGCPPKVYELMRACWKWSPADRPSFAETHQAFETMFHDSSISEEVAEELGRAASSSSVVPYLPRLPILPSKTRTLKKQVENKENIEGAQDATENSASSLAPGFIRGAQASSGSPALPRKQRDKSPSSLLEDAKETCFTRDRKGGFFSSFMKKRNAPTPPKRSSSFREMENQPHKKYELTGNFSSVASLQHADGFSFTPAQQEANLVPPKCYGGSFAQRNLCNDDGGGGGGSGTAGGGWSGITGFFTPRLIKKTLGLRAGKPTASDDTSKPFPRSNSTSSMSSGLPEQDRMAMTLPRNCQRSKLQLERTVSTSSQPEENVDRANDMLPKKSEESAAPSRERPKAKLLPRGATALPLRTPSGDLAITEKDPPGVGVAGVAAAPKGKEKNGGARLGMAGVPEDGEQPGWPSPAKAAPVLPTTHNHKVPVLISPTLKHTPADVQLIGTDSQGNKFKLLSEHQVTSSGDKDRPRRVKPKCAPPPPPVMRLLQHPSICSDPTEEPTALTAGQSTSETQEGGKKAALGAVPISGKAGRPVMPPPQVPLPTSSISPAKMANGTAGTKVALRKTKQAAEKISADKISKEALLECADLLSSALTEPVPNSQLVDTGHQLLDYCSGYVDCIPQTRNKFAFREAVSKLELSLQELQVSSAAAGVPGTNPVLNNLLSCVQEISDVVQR

Q: With `COc1cc2ncnc(Nc3cccc(Cl)c3)c2cc1OC` as the compound, how does the IC50 read?
A: Its IC50 is 1.05 µM.
